In ChEMBL document CHEMBL1126784, “A selective delta 1 opioid receptor agonist derived from oxymorphone. Evidence for separate recognition sites for delta 1 opioid receptor agonists and antagonists” (J Med Chem, 1993):

Key:
Mus musculus = experiment: Antinociceptive potency in mice using the tail-flick test on icv administration.; assay type: functional
[1] = biological target: Kappa-type opioid receptor (Cavia porcellus, UniProt P41144); experiment: selective binding affinity against kappa opioid receptor, using [3H]U-69593 as radioligand
Mu-type opioid receptor = Mu-type opioid receptor (Cavia porcellus, UniProt P97266); experiment: selective binding affinity against mu opioid receptor, using [3H]DAMGO as radioligand
Chain of Mu-type opioid receptor (P97266 whole entry): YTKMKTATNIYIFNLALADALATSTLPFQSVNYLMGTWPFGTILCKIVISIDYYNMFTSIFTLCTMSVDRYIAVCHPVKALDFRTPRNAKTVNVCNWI

Chain of Kappa-type opioid receptor (P41144 whole entry): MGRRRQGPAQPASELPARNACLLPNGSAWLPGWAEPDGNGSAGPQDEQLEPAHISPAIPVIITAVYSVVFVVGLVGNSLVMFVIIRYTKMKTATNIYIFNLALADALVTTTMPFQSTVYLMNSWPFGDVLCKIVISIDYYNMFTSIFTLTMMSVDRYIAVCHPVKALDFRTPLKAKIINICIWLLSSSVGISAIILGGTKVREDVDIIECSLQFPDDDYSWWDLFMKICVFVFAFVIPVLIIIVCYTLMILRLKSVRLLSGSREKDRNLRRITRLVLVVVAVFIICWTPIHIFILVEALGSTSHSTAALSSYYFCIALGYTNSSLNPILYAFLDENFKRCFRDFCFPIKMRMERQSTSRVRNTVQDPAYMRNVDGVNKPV

SMILES: CC1(C)SSC(C)(C)[C@@H](NC(=O)[C@@H](N)Cc2ccc(O)cc2)C(=O)NCC(=O)N[C@@H](Cc2ccccc2)C(=O)N[C@H]1C(=O)O
- ED50 (Mus musculus): 11.5 nM mouse-1

SMILES: CN1CC[C@]23c4c5ccc(O)c4O[C@H]2C(=O)C2(Cc4ccccc4C2)C[C@@]3(O)[C@H]1C5 [SPIROINDANYLOXYMORPHONE]
- ED50 (Mus musculus): 1.7 nM mouse-1
- Ki [1]: 588 nM
- Ki (Mu-type opioid receptor): 10.6 nM
